# According to patent US20260285850A1, “SUBSTITUTED OXAZOLIDINONES AND IMIDAZOLINONES AS HERBICIDES” (FMC CORPORATION, priority 2023, published 2026):
# How the values were obtained:
# Type in all cases: in vivo
# [1] = test system: oat, wild (wild oat, Avena fatua); experiment: Test A postemergence application, visual injury rating 0-100
# Method in brief: (§1)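 Compound in a non-phytotoxic, surfactant-containing solvent is applied either as a directed soil spray before seedlings emerge or onto emerged plants 2-10 cm tall; pots hold a loam-sand blend. Plants grow 10 days under greenhouse conditions and are rated by eye against untreated controls (0 no effect, 100 complete control).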
# [2] = test system: wheat (Triticum aestivum); experiment: as above
# Method in brief: as §1
# [3] = test system: ragweed (common ragweed, Ambrosia artemisiifolia); experiment: as above
# Method in brief: as §1
# corn (Zea mays) [4] = experiment: as above
# Method in brief: as §1
# [5] = test system: horseweed (Erigeron canadensis); experiment: as above
# Method in brief: as §1
# [6] = test system: galium (catchweed bedstraw, Galium aparine); experiment: as above
# Method in brief: as §1
# kochia (Bassia scoparia) [7] = experiment: as above
# Method in brief: as §1
# soybean (Glycine max) [8] = experiment: as above
# Method in brief: as §1
# [9] = test system: barnyardgrass (Echinochloa crus-galli); experiment: as above
# Method in brief: as §1
# [10] = test system: green foxtail (Setaria viridis); experiment: as above
# Method in brief: as §1
# [11] = test system: blackgrass (Alopecurus myosuroides); experiment: as above
# Method in brief: as §1
# [12] = test system: ryegrass, Italian (italian ryegrass, Lolium multiflorum); experiment: as above
# Method in brief: as §1
# [13] = test system: palmer (palmer amaranth, palmer pigweed, Amaranthus palmeri); experiment: as above
# Method in brief: as §1
# [14] = test system: barnyardgrass (Echinochloa crusgalli); experiment: Test B flooded paddy test, visual plant response rating 0-100; details: 250 g ai/ha, Flood, applied to paddy water, evaluated after 13 days
# Method in brief: (§2)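 Visual scores versus untreated controls were recorded 13 days after treatment of greenhouse-held plants. At the 2-leaf stage, pots were flooded 3 cm above the soil surface and compounds added straight to the water.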
# [15] = test system: sedge, umbrella (small-flower umbrella sedge, Cyperus difformis); experiment: as above; details: 250 g ai/ha, Flood, applied to paddy water, evaluated after 13 days
# Method in brief: as §2
# rice (Oryza sativa) = experiment: as above; details: 250 g ai/ha, Flood, applied to paddy water, evaluated after 13 days
# Method in brief: as §2
# [16] = test system: ducksalad (Heteranthera limosa); experiment: as above; details: 250 g ai/ha, Flood, applied to paddy water, evaluated after 13 days
# Method in brief: as §2
# [17] = test system: oat, wild (wild oat, Avena fatua); experiment: Test A preemergence soil spray, visual injury rating 0-100; details: 10 days
# Method in brief: as §1
# [18] = test system: wheat (Triticum aestivum); experiment: as above; details: 10 days
# Method in brief: as §1
# [19] = test system: ragweed (common ragweed, Ambrosia artemisiifolia); experiment: as above; details: 10 days
# Method in brief: as §1
# corn (Zea mays) [20] = experiment: as above; details: 10 days
# Method in brief: as §1
# kochia (Bassia scoparia) [21] = experiment: as above; details: 10 days
# Method in brief: as §1
# soybean (Glycine max) [22] = experiment: as above; details: 10 days
# Method in brief: as §1
# [23] = test system: barnyardgrass (Echinochloa crus-galli); experiment: as above; details: 10 days
# Method in brief: as §1
# [24] = test system: green foxtail (Setaria viridis); experiment: as above; details: 10 days
# Method in brief: as §1
# [25] = test system: blackgrass (Alopecurus myosuroides); experiment: as above; details: 10 days
# Method in brief: as §1
# [26] = test system: ryegrass, Italian (italian ryegrass, Lolium multiflorum); experiment: as above; details: 10 days
# Method in brief: as §1
# [27] = test system: palmer (palmer amaranth, palmer pigweed, Amaranthus palmeri); experiment: as above; details: 10 days
# Method in brief: as §1
# [28] = 62 g ai/ha, postemergence, 10 days, 0 = no effect, 100 = complete control
# [29] = Postemergence, 16 g ai/ha, greenhouse 10 days, 0 no effect, 100 complete control
# [30] = 62 g ai/ha, 0 = no effect, 100 = complete control
structure (smiles),measurement,setting,value
CC1(C(=O)NC2C=CC(C(=O)O)C2)CN(c2cc(F)cc(F)c2)C(=O)O1 (stereo not shown) [Compound 138],"Oat, Wild plant response rating (0-100)",[1]; [28],90
same,"Oat, Wild plant response rating (0 to 100 scale)",[1]; [29],90
same,Wheat plant response rating (0-100),[2]; [28],90
same,Wheat plant response rating (0 to 100 scale),[2]; [29],90
same,Ragweed plant response rating (0-100),[3]; [28],80
same,Ragweed plant response rating (0 to 100 scale),[3]; [29],60
same,Corn plant response rating (0-100),corn (Zea mays) [4]; [28],100
same,Corn plant response rating (0 to 100 scale),corn (Zea mays) [4]; [29],100
same,Horseweed plant response rating (0-100),[5]; [28],80
same,Horseweed plant response rating (0 to 100 scale),[5]; [29],50
same,Galium plant response rating (0-100),[6]; [28],90
same,Galium plant response rating (0 to 100 scale),[6]; [29],90
same,Kochia plant response rating (0-100),kochia (Bassia scoparia) [7]; [28],80
same,Kochia plant response rating (0 to 100 scale),kochia (Bassia scoparia) [7]; [29],80
same,Soybean plant response rating (0-100),soybean (Glycine max) [8]; [28],60
same,Soybean plant response rating (0 to 100 scale),soybean (Glycine max) [8]; [29],60
same,Barnyardgrass plant response rating (0-100),[9]; [28],80
same,Barnyardgrass plant response rating (0 to 100 scale),[9]; [29],70
same,"Foxtail, Green plant response rating (0-100)",[10]; [28],90
same,"Foxtail, Green plant response rating (0 to 100 scale)",[10]; [29],80
same,Blackgrass plant response rating (0-100),[11]; [28],90
same,Blackgrass plant response rating (0 to 100 scale),[11]; [29],70
same,"Ryegrass, Italian plant response rating (0-100)",[12]; [28],90
same,"Ryegrass, Italian plant response rating (0 to 100 scale)",[12]; [29],60
same,"Pigweed, Palmer plant response rating (0-100)",[13]; [28],90
same,"Pigweed, Palmer plant response rating (0 to 100 scale)",[13]; [29],90
same,"Plant response rating, Barnyardgrass (0 to 100 scale, 0 is no effect and 100 is complete control)",[14],95
same,"Plant response rating, Sedge, Umbrella (0 to 100 scale, 0 is no effect and 100 is complete control)",[15],95
same,"Plant response rating, Rice (0 to 100 scale, 0 is no effect and 100 is complete control)",rice (Oryza sativa),95
same,"Plant response rating, Ducksalad (0 to 100 scale, 0 is no effect and 100 is complete control)",[16],100
same,"Oat, Wild plant response rating","[17]; 16 g ai/ha, 0 to 100 scale",50
same,"Oat, Wild plant response rating (0-100)",[17]; [30],90
same,Wheat plant response rating,"[18]; 16 g ai/ha, 0 to 100 scale",50
same,Wheat plant response rating (0-100),[18]; [30],90
same,Ragweed plant response rating,"[19]; 16 g ai/ha, 0 to 100 scale",0
same,Ragweed plant response rating (0-100),[19]; [30],40
same,Corn plant response rating,"corn (Zea mays) [20]; 16 g ai/ha, 0 to 100 scale",60
same,Corn plant response rating (0-100),corn (Zea mays) [20]; [30],90
same,Kochia plant response rating,"kochia (Bassia scoparia) [21]; 16 g ai/ha, 0 to 100 scale",90
same,Kochia plant response rating (0-100),kochia (Bassia scoparia) [21]; [30],90
same,Soybean plant response rating,"soybean (Glycine max) [22]; 16 g ai/ha, 0 to 100 scale",30
same,Soybean plant response rating (0-100),soybean (Glycine max) [22]; [30],80
same,Barnyardgrass plant response rating,"[23]; 16 g ai/ha, 0 to 100 scale",60
same,Barnyardgrass plant response rating (0-100),[23]; [30],100
same,"Foxtail, Green plant response rating","[24]; 16 g ai/ha, 0 to 100 scale",20
same,"Foxtail, Green plant response rating (0-100)",[24]; [30],90
same,Blackgrass plant response rating,"[25]; 16 g ai/ha, 0 to 100 scale",40
same,Blackgrass plant response rating (0-100),[25]; [30],70
same,"Ryegrass, Italian plant response rating","[26]; 16 g ai/ha, 0 to 100 scale",70
same,"Ryegrass, Italian plant response rating (0-100)",[26]; [30],90
same,"Pigweed, Palmer plant response rating","[27]; 16 g ai/ha, 0 to 100 scale",30
same,"Pigweed, Palmer plant response rating (0-100)",[27]; [30],90
